Among the test systems are Staphylococcus aureus; Streptococcus sanguinis; Shigella flexneri; Streptococcus agalactiae; Bacillus megaterium Bm11; Escherichia coli D21; Escherichia coli ML-35.
What all share (assay): ≥ marks a high value that may be exact or a test limit, other limits are often not marked, values filed in µg/mL are converted to µM
The test system of experiment [1] is Pseudomonas aeruginosa 1570.
Experiment [2] has as its system Pseudomonas aeruginosa 5167.
Experiment [3] relates to Pseudomonas aeruginosa 8600.
The subject of experiment [4] is Pseudomonas aeruginosa ATCC 27853.
For experiment [5], the system named is Bacillus subtilis ATCC 6633.
The subject of experiment [6] is Candida albicans JLC 30364.
In experiment [7] the test system is Bacillus subtilis ATCC 6051.
Experiment [8] deals with Candida albicans ATCC 18804.
The subject of experiment [9] is Enterococcus faecalis ATCC 19433.
The subject of experiment [10] is Escherichia coli ATCC 11775.
For experiment [11], the system named is Listeria monocytogenes ATCC 7644.
The subject of experiment [12] is Mycobacterium tuberculosis H37Rv.
Experiment [13] concerns Mycobacterium tuberculosis.
Experiment [14] deals with Pseudomonas aeruginosa ATCC 10145.
Experiment [15] concerns Pseudomonas aeruginosa DFU3.
Experiment [16] relates to Salmonella enterica subsp. enterica serovar Typhi ATCC 6399.
In experiment [17] the test system is Staphylococcus aureus ATCC 29213.
For experiment [18], the system named is Staphylococcus aureus IAM 1098.
Experiment [19] relates to Staphylococcus epidermidis SAM 0020.
Experiment [20] deals with Escherichia coli ATCC 25922.
The test system of experiment [21] is Listeria monocytogenes EGD.
The subject of experiment [22] is Staphylococcus aureus ATCC 25923.
Experiment [23] concerns Candida albicans KCTC 7270.
The test system of experiment [24] is Escherichia coli CCARM 1229.
The subject of experiment [25] is Escherichia coli CCARM 1238.
In experiment [26] the test system is Pseudomonas aeruginosa 4007.
The subject of experiment [27] is Pseudomonas aeruginosa 4891.
Experiment [28] deals with Staphylococcus aureus CCARM 3090.
Experiment [29] deals with Staphylococcus aureus CCARM 3518.
The subject of experiment [30] is Trichosporon beigelii KCTC 7707.
In experiment [31] the test system is Salmonella enterica subsp. enterica serovar Typhimurium ATCC 14028.
In experiment [32] the test system is Serratia marcescens ATCC 8100.
Experiment [33] relates to Staphylococcus epidermidis ATCC 12228.

Converted amounts (≈) assume the structure as drawn. “And” between values parts separate entries of the source, which are not always exact repeats. Identical values can stand only once.

The term MIC denotes the lowest concentration found to suppress growth.

As for `CC(C)C[C@H](NC(=O)[C@H](CC(C)C)NC(=O)[C@H](CCCCN)NC(=O)[C@H](CCCCN)NC(=O)[C@H](CC(C)C)NC(=O)[C@H](CC(C)C)NC(=O)[C@H](CCCCN)NC(=O)[C@H](C)NC(=O)[C@@H](N)Cc1ccccc1)C(N)=O` [FAKLLKKLL], the MIC in experiment [1] was 21.1 µM (≈ 22.6 µg/mL); in [2] it was ≥ 59.6 µM; in experiment [3] it was 5.27 µM (≈ 5.65 µg/mL); in [4], 7.45 µM and 14.9 µM.
Consider `NC(=O)[C@H](Cc1ccccc1)NC(=O)[C@H](Cc1ccccc1)NC(=O)[C@@H](N)Cc1ccccc1` [FFF], for which the values for the MIC with Staphylococcus aureus and against Streptococcus sanguinis were > 1090 µM and ≥ 1090 µM, respectively.
Regarding `CC(=O)N[C@@H](Cc1ccccc1)C(=O)N[C@@H](CCCCN)C(=O)N[C@@H](CCCCN)C(=O)N[C@@H](CC(C)C)C(=O)N[C@@H](CCCCN)C(=O)N[C@@H](CCCCN)C(=O)N[C@@H](CC(C)C)C(=O)N[C@@H](Cc1ccccc1)C(=O)N[C@@H](CO)C(=O)N[C@@H](CCCCN)C(=O)N[C@@H](CC(C)C)C(=O)N[C@@H](Cc1c[nH]c2ccccc12)C(=O)N[C@@H](CC(N)=O)C(=O)N[C@@H](Cc1c[nH]c2ccccc12)C(=O)N[C@@H](CCCCN)C(N)=O` [FKKLKKLFSKLWNWK], the MIC in [5] was 1.6 µM and 4 µM; in experiment [6], ≥ 32 µM.
With `CC[C@H](C)[C@H](NC(=O)[C@H](CC(C)C)NC(=O)[C@H](CCCCN)NC(=O)[C@H](CC(C)C)NC(=O)[C@H](C)NC(=O)CNC(=O)[C@H](CCCCN)NC(=O)[C@H](C)NC(=O)[C@H](CC(C)C)NC(=O)[C@H](C)NC(=O)CNC(=O)[C@H](Cc1c[nH]c2ccccc12)NC(=O)[C@@H](N)Cc1ccccc1)C(=O)N1CCC[C@H]1C(=O)N[C@@H](CO)C(=O)N[C@@H](CC(C)C)C(=O)N[C@@H](Cc1ccccc1)C(=O)N[C@@H](CO)C(=O)N[C@@H](CO)C(=O)N[C@@H](Cc1ccccc1)C(=O)N[C@@H](CO)C(=O)N[C@@H](CCCCN)C(=O)N[C@@H](CCCCN)C(=O)N[C@@H](CC(=O)O)C(=O)O` [FWGALAKGALKLIPSLFSSFSKKD], the MIC in experiment [7] was 4.8 µM (≈ 12.5 µg/mL); in experiment [5] it was ≥ 37.5 µM; in [8] it was 19.1 µM (≈ 49.9 µg/mL); in experiment [9] it was 2.4 µM (≈ 6.27 µg/mL); in experiment [10] it was 19.1 µM (≈ 49.9 µg/mL); in experiment [11], 18.8 µM (≈ 49.1 µg/mL). Further, the MIC in experiment [12] was 22.1 µM (≈ 57.7 µg/mL); in experiment [13], ≥ 33.1 µM; in [14] it was ≥ 38.2 µM; in experiment [15] it was 18.8 µM and 25 µM; in experiment [16] it was ≥ 37.5 µM; in the experiment with Shigella flexneri, ≥ 37.5 µM. Also, the MIC is 6.2 µM and > 3.1 µM in experiment [17]; 2.4 µM (≈ 6.27 µg/mL) in experiment [18]; 4.8 µM (≈ 12.5 µg/mL) in [19]; 18.8 µM (≈ 49.1 µg/mL) with Streptococcus agalactiae.
For `CC[C@H](C)[C@H](NC(=O)[C@H](C)NC(=O)[C@H](CCCN=C(N)N)NC(=O)[C@H](CCCCN)NC(=O)[C@H](C)NC(=O)[C@H](CCC(N)=O)NC(=O)[C@H](CC(C)C)NC(=O)[C@H](CCCCN)NC(=O)[C@H](Cc1ccccc1)NC(=O)[C@H](CC(C)C)NC(=O)[C@H](CCCCN)NC(=O)[C@H](Cc1ccccc1)NC(=O)[C@@H](NC(=O)[C@@H](NC(=O)[C@H](CCCCN)NC(=O)[C@H](C)NC(=O)[C@H](C)NC(=O)[C@@H](N)CCCCN)[C@@H](C)O)C(C)C)C(=O)N[C@@H](CCC(=O)O)C(=O)N[C@@H](C)C(N)=O` [KAAKTVFKLFKLQAKRAIEA], the MIC was 128 µM (≈ 289 µg/mL) in experiment [20], ≥ 128 µM in [21], 128 µM (≈ 289 µg/mL) in experiment [4] and 128 µM (≈ 289 µg/mL) in experiment [22].
For the compound `CC[C@H](C)[C@H](NC(=O)[C@H](CCCCN)NC(=O)[C@H](CCCCN)NC(=O)[C@@H](NC(=O)[C@H](C)NC(=O)[C@H](CCC(=O)O)NC(=O)[C@H](Cc1cnc[nH]1)NC(=O)[C@@H](NC(=O)[C@H](CCCCN)NC(=O)[C@H](CCC(N)=O)NC(=O)[C@H](Cc1ccccc1)NC(=O)[C@@H](NC(=O)[C@H](CCCCN)NC(=O)[C@H](CCCCN)NC(=O)[C@H](CC(C)C)NC(=O)[C@H](C)NC(=O)[C@H](CC(N)=O)NC(=O)[C@@H](N)CC(C)C)C(C)C)[C@@H](C)CC)[C@@H](C)CC)C(N)=O` [LNALKKVFQKIHEAIKKI], the MIC was 16 µM (≈ 33.9 µg/mL) in experiment [23]; 2 µM (≈ 4.24 µg/mL) in experiment [24]; 2 µM (≈ 4.24 µg/mL) in experiment [25]; 4 µM (≈ 8.48 µg/mL) in experiment [26]; 4 µM (≈ 8.48 µg/mL) in experiment [27]; 4 µM (≈ 8.48 µg/mL) in experiment [28]. The MIC stood at 4 µM (≈ 8.48 µg/mL) in [29] and 16 µM (≈ 33.9 µg/mL) in experiment [30].
Regarding `NC(N)=NCCC[C@H](NC(=O)[C@@H](N)CCCN=C(N)N)C(=O)N[C@@H](CCCN=C(N)N)C(=O)N1CCC[C@H]1C(=O)N[C@@H](CCCN=C(N)N)C(=O)N1CCC[C@H]1C(=O)N1CCC[C@H]1C(=O)N[C@@H](Cc1ccc(O)cc1)C(=O)N[C@@H](Cc1c[nH]c2ccccc12)C(=O)N1CCC[C@H]1C(=O)N[C@@H](CCCN=C(N)N)C(=O)N1CCC[C@H]1C(=O)N[C@@H](CCCN=C(N)N)C(=O)N1CCC[C@H]1C(=O)N1CCC[C@H]1C(=O)O` [RRRPRPPYWPRPRPP], the MIC with Bacillus megaterium Bm11 is 16 µM (≈ 31.7 µg/mL); against Escherichia coli D21, 2 µM (≈ 3.97 µg/mL); against Escherichia coli ML-35, 4 µM (≈ 7.94 µg/mL); in experiment [31], 16 µM (≈ 31.7 µg/mL); in [32] it was 8 µM (≈ 15.9 µg/mL); in experiment [33] it was > 64 µM.

The record behind these values is DBAASP.
